In the Kinase Knowledgebase extract (Sharma et al. 2016):

Experiments:
[1] = target: PIK3CA (human), P42336 [Antiproliferation of PI3K Mutated BT20 Cells]; experiment: Cell-Based Assay
[2] = target: PIK3CA (human) (UniProt P42336); experiment: Inhibition of PIK3CA Kinase Activity
Sequence of PIK3CA (human) (P42336 whole entry, looked up): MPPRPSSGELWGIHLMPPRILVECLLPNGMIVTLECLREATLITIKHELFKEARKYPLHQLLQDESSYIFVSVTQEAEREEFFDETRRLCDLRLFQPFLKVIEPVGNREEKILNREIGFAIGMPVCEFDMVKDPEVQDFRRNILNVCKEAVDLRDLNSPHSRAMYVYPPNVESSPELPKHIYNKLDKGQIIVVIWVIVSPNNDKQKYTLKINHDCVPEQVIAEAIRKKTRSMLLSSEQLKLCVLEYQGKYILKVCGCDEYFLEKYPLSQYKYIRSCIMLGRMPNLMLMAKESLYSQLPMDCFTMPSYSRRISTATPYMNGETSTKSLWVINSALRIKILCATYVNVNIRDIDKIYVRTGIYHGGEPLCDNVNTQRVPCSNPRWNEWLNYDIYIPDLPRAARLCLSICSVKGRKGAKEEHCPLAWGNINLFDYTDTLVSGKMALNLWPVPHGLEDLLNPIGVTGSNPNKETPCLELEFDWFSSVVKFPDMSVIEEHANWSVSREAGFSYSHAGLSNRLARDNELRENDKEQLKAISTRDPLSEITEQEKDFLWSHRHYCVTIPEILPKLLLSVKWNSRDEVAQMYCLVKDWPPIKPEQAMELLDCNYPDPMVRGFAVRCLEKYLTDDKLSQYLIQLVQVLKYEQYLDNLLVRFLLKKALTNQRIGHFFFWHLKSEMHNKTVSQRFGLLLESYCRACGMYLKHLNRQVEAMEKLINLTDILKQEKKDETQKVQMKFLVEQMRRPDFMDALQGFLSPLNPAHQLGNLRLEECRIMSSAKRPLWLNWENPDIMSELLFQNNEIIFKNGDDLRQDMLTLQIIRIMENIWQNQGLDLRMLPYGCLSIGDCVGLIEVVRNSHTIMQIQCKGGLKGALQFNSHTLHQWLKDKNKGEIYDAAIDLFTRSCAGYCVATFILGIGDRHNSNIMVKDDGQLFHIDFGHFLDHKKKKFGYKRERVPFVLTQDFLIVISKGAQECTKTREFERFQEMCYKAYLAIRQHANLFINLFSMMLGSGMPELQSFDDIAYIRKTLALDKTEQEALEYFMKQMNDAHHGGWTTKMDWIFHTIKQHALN

Sequence of PIK3CA (human), P42336 [Antiproliferation of PI3K Mutated BT20 Cells] (P42336 whole entry, looked up, change not shown): as the sequence (P42336 whole entry, looked up) above

Row | SMILES | IC50 [1] | IC50 [2]
1 | Cc1nc(N)nc2c1cc(-c1ccc(C#N)nc1)c(=O)n2[C@H]1CC[C@H](O)CC1 | 2690 nM | 470 nM
2 | CNc1nc(C)c2cc(Br)c(=O)n(CC3CCOC3)c2n1 (stereo not drawn) | 594 nM | 48 nM
3 | Cc1nc(N)nc2c1cc(-c1cn[nH]c1)c(=O)n2C1CCC(C)(O)CC1 (stereo not drawn) | 15.2 nM | 18 nM
4 | CCN(CC)C(=O)OCn1cc(-c2cc3c(C)nc(N)nc3n(C(C)C)c2=O)nn1 | 10000 nM | 3300 nM
5 | CNc1nc(C)c2cc(-c3ccc(OC)nc3)c(=O)n(CC3CCOC3)c2n1 (stereo not drawn) | 45.6 nM | 4.6 nM
6 | COc1ccc(-c2cc3c(C)nc(N)nc3n(C(C)C)c2=O)cn1 | 64 nM | 11 nM
7 | Cc1nc(N)nc2c1cc(-c1cnn(CC(C)(C)O)c1)c(=O)n2C1CCCC1 | 101 nM | 89 nM
8 | CNc1nc(C)c2cc(-c3cncnc3)c(=O)n(C3CCCC3)c2n1 | 305 nM | 23 nM
9 | Cc1nc(N)nc2c1cc(-c1cnc3[nH]ccc3c1)c(=O)n2C1CCC1 | 11.9 nM | 2 nM
10 | CCNc1nc(C)c2cc(-c3cnc4[nH]ccc4c3)c(=O)n(C3CCCC3)c2n1 | 46.1 nM | 1.77 nM
11 | COc1ncc(-c2cc3c(C)nc(N)nc3n(C3CCCC3)c2=O)cn1 | 9.57 nM | 2 nM
12 | CNc1nc(C)c2cc(C(=O)Nc3cc[nH]n3)c(=O)n(C3CCCC3)c2n1 | 16.4 nM | 2.34 nM
13 | Cc1nc(N)nc2c1cc(-c1cnc3[nH]ccc3c1)c(=O)n2C1CCOCC1 | 15.3 nM | 3.7 nM
14 | Cc1nc(N)nc2c1cc(-c1ccc(N3CCCC3)nc1)c(=O)n2C1CCCC1 | 26.5 nM | 88 nM
15 | Cc1nc(N)nc2c1cc(-c1cn[nH]c1)c(=O)n2[C@H]1CC[C@H](O)CC1 | 169 nM | 6.7 nM
16 | CNc1nc(C)c2cc(-c3cnn(C)c3)c(=O)n(C3CCCC3)c2n1 | 314 nM | 39 nM
17 | Cc1nc(N)nc2c1cc(-c1cc[nH]n1)c(=O)n2[C@H]1CC[C@H](O)CC1 | 25.2 nM | 10 nM
18 | COc1ccc(-c2cc3c(C)nc(N)nc3n([C@H]3CC[C@H](OC)CC3)c2=O)cn1 | 7.37 nM | 3.9 nM
19 | CNc1nc(C)c2cc(-c3cccc(CO)c3)c(=O)n(C3CCCC3)c2n1 | 14.7 nM | 4.78 nM
